Data published in PubChem BioAssay (NCI).
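Values below derive from 48-hour exposures of cells grown in 96-well plates, with endpoints linearly interpolated between the two concentrations bracketing the appropriate inhibition level. GI50 marks 50% less growth. TGI denotes the concentration required for complete inhibition of growth.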

Columns and labels:
Experiment in all cases: NCI tumour cell line growth inhibition, 48 h
EKVX NSCLC = tested on: EKVX NSCLC
HOP-92 NSCLC = tested on: HOP-92 NSCLC
RXF 393 renal = tested on: RXF 393 renal
SK-MEL-5 melanoma = tested on: SK-MEL-5 melanoma
SK-MEL-28 melanoma = tested on: SK-MEL-28 melanoma
SK-MEL-2 melanoma = tested on: SK-MEL-2 melanoma
TK-10 renal = tested on: TK-10 renal
LOX IMVI melanoma = tested on: LOX IMVI melanoma
SR leukemia = tested on: SR leukemia
CCRF-CEM leukemia = tested on: CCRF-CEM leukemia

SMILES | TGI (EKVX NSCLC) | TGI (HOP-92 NSCLC) | TGI (RXF 393 renal) | TGI (SK-MEL-5 melanoma) | TGI (SK-MEL-28 melanoma) | TGI (SK-MEL-2 melanoma) | GI50 (EKVX NSCLC) | GI50 (HOP-92 NSCLC) | GI50 (TK-10 renal) | TGI (TK-10 renal) | GI50 (SK-MEL-5 melanoma) | GI50 (SK-MEL-28 melanoma) | GI50 (LOX IMVI melanoma) | TGI (LOX IMVI melanoma) | GI50 (SR leukemia) | TGI (SR leukemia) | GI50 (CCRF-CEM leukemia) | TGI (CCRF-CEM leukemia) | GI50 (SK-MEL-2 melanoma) | GI50 (RXF 393 renal)
N#CNc1nc(C(=O)Nc2ccc(Cl)cc2)cc(-c2ccccc2)n1 | > 100 µM | > 100 µM | > 100 µM | > 100 µM | > 100 µM | > 100 µM |  |  |  |  |  |  |  |  |  |  |  |  |  | 
COc1ccc(Cn2c3c(c4c(O)cccc42)C(=O)c2ccccc2-3)cc1 | 27.7 µM | 4.23 µM |  | 20.6 µM | 25 µM | 45.9 µM | 12 µM | 0.233 µM | 4.36 µM | 18.3 µM | 7.76 µM | 11.6 µM | 18.8 µM | 47.8 µM | 13.9 µM | 30.5 µM | 73.6 µM | > 100 µM | 18.2 µM | 
O=C(O)C1=C(Cl)c2ccccc2S1(=O)=O | > 100 µM | > 100 µM | > 100 µM | > 100 µM | > 100 µM | > 100 µM |  |  |  | > 100 µM |  |  |  | > 100 µM |  |  |  | > 100 µM |  | 
Cc1cccc(NC(=O)Cc2nc3ccccc3s2)c1C | > 100 µM |  | > 100 µM | > 100 µM | > 100 µM | > 100 µM |  |  |  | > 100 µM |  |  |  | > 100 µM |  |  |  | > 100 µM |  | 
CN(/C(=N\O)c1ccccc1)c1ccccc1 | 74.3 µM | 62.5 µM |  |  |  | 70.1 µM |  |  |  |  |  |  |  | 75.7 µM |  | 75.4 µM |  |  |  | 
O=C(Nc1cc([N+](=O)[O-])cc([N+](=O)[O-])c1)OC1C2CCC1C1OC1C2 (stereo not given) | > 50 µM | > 50 µM | > 50 µM | > 50 µM | > 50 µM | > 50 µM |  |  |  | > 50 µM |  |  |  |  |  |  |  | > 50 µM |  | 
CC(C)[C@H](O)C(=O)N[C@H]1Cc2ccc3c(c2)[C@]24C5=C(N=C(O5)[C@H](C(C)C)NC1=O)c1nc(Cl)c(o1)-c1c(Cl)[nH]c5cccc(c15)-c1cccc2c1N[C@H]4O3 | > 10 µM |  |  |  |  |  |  |  |  |  | < 0.001 µM |  |  |  |  |  |  | 0.0277 µM |  | 
CN(C)C(=S)/N=c1\ssc(=S)n1Cc1ccccn1 | > 100 µM | 64.5 µM | 20 µM | > 54.4 µM | > 100 µM | 5.98 µM |  |  |  | > 100 µM |  |  |  | > 100 µM |  |  |  | > 26.2 µM |  | 
COc1ccc(CC(C#N)c2cc(OC)c(OC)c(OC)c2)cc1 (stereo not given) | > 100 µM | 16.7 µM |  | 2.7 µM | > 100 µM | > 100 µM |  |  |  | > 100 µM |  |  |  | > 100 µM |  | 2.15 µM |  | > 100 µM |  | 
O=C(Cc1nc2ccccc2s1)C(=O)Nc1ccc(Cl)cc1Cl |  | > 100 µM |  |  | > 100 µM | > 100 µM |  |  |  | > 100 µM |  |  |  | > 100 µM |  | > 100 µM |  |  |  | 
O=C(Nn1c2c(sc1=NC1CC1)C(=O)c1ccccc1C2=O)c1cc2ccc1CCc1ccc(cc1)CC2 | 12.5 µM | 14.4 µM | 4.75 µM | 2.76 µM | 5.22 µM | 7.25 µM | 1.87 µM | 2.26 µM | 18.4 µM | 34.7 µM | 1.43 µM | 2.4 µM | 0.966 µM | 2.62 µM |  |  | 2.53 µM | > 100 µM | 2.47 µM | 1.85 µM
COc1cc(C(=O)/C=C/c2c(-c3cccs3)nc3ccccn23)cc(OC)c1OC | > 100 µM | 2.78 µM |  | 2.72 µM |  | 4.35 µM | 3.12 µM | 0.289 µM | 3.78 µM | 25.4 µM | 1.33 µM |  | 1.87 µM | 4.9 µM | 1.34 µM | > 100 µM | 1.66 µM | 6.85 µM | 2.27 µM | 
N=C(N)Cn1cnc2ccccc21 | > 100 µM |  | > 100 µM | > 100 µM | > 100 µM | > 100 µM |  |  |  | > 100 µM |  |  |  | > 100 µM |  |  |  | > 100 µM |  | 
CC(=O)[CH-]C(=O)c1ccccc1.CC(=O)[CH-]C(=O)c1ccccc1.CC12CC3(C)CC(C)(C1)CC([O-])(C2)C3.CC[O-].[Ti+4] |  | 55.3 µM |  | 64.4 µM | 38.2 µM |  |  | 19.1 µM | 26.7 µM | 62.1 µM | 30.8 µM | 17 µM | 13.2 µM | 31.1 µM |  |  | 28.7 µM | > 100 µM |  | 
O/N=C1/C(=C/c2ccc(Cl)cc2)CCCC1C(NO)c1ccc(Cl)cc1 (stereo not given) | 74.8 µM |  | 29.6 µM | 66.2 µM | 22.5 µM | 68.5 µM |  |  |  | > 100 µM |  |  |  |  |  |  |  | 42.6 µM |  | 
C[n+]1ccc2[nH]c3ccccc3c2c1 | > 100 µM | > 100 µM | > 100 µM | > 100 µM | > 100 µM | > 100 µM |  |  |  | > 100 µM |  |  |  | > 100 µM |  |  |  | > 100 µM |  | 
Cc1[nH]ccc2cc3nc4ccccc4c3cc12 |  | 5.64 µM | 3.91 µM | 13.6 µM | 23.9 µM | 16.5 µM |  | 1.3 µM | 4.47 µM | 12.9 µM | 3.28 µM | 10.7 µM |  |  | 1.13 µM | 3.53 µM | 1.5 µM | 10 µM | 5.17 µM | 1.74 µM
Cn1c(=O)c2[nH]cnc2n(CC(=O)O)c1=O | > 100 µM | > 100 µM |  | > 100 µM | > 100 µM | > 100 µM |  |  |  | > 100 µM |  |  |  |  |  | > 100 µM |  | > 100 µM |  | 
CCC[CH2][Sn]1([CH2]CCC)[O]CC([CH2][Sn]([c]2ccccc2)([c]2ccccc2)[c]2ccccc2)[O]1 (stereo not given) | 26.3 µM | 25.7 µM | 15.4 µM |  | 20.2 µM | 23.4 µM | 13.4 µM | 11.9 µM | 13.8 µM | 27 µM |  | 5.95 µM |  |  | 3.78 µM | > 100 µM | 2.26 µM | 20.8 µM | 10.9 µM | 3.21 µM
O=C1c2c(O)cccc2C(C(=O)CCCC(=O)C2c3cccc(O)c3C(=O)c3c(O)cccc32)c2cccc(O)c21 | 2.35 µM | 1 µM |  | 0.671 µM | 4.53 µM | 0.861 µM |  |  |  | 1.67 µM |  |  |  | 1.8 µM |  | 4.64 µM |  | 8.02 µM |  | 
